The values that follow are results of earlier work, collected in patent publication US12611399B2, “Movement disorders” (Definium Therapeutics US, Inc., priority 2021, dated 2026).

Common to all, as to conditions: result in words
The subject of one series is D1-3 receptors.
For another series, the target named is 5-HT transporter (SERT) (Homo sapiens, UniProt P31645).
Series [1] relates to serotonin 5-HT1 receptors.
A further series concerns the target 5-HT2A receptor (Homo sapiens, UniProt P28223).
Another series deals with D2 receptors (Homo sapiens, UniProt P14416).
Sequence of D2 receptors (P14416 whole entry): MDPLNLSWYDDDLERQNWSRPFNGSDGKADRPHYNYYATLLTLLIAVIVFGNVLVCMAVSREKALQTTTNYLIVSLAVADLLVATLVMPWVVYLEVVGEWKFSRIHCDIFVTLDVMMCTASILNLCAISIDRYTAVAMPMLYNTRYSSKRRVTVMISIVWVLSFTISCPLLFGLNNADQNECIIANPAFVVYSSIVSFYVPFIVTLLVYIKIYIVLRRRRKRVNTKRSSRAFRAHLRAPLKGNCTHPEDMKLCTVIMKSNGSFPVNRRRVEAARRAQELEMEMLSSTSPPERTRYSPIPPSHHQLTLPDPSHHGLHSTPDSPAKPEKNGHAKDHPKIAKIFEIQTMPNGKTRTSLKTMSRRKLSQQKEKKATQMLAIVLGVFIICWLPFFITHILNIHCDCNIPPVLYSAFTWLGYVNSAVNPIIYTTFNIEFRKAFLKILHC

Sequence of 5-HT transporter (SERT) (P31645 whole entry, species assumed): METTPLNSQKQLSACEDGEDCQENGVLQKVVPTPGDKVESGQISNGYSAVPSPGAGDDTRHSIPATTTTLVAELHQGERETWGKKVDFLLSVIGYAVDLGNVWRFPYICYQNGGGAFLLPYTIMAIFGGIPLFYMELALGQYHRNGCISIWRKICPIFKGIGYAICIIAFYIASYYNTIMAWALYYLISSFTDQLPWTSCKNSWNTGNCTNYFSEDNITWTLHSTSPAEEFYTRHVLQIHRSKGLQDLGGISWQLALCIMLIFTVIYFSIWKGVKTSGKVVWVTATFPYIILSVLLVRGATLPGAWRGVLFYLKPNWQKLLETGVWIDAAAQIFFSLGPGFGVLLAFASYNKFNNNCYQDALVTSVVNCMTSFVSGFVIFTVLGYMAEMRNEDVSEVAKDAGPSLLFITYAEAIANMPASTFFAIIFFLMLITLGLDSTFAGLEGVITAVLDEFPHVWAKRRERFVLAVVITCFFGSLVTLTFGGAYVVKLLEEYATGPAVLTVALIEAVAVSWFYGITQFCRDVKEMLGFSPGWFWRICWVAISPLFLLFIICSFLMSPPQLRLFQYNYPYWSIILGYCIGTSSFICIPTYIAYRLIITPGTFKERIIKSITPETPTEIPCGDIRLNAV
Sequence of 5-HT2A receptor (P28223 whole entry): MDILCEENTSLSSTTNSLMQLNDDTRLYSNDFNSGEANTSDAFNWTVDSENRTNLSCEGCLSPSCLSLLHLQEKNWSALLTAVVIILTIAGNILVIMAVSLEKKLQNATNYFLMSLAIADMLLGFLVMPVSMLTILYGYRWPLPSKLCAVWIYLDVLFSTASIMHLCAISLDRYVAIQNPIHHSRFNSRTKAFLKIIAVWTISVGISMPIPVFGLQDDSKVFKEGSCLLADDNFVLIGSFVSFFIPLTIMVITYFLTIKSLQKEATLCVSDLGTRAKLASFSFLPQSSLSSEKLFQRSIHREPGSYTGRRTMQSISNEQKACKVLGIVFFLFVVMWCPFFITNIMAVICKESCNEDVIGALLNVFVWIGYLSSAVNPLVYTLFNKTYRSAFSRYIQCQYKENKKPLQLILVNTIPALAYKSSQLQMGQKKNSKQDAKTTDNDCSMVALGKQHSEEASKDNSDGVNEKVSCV

Consider `CCN(CC)C(=O)[C@@H]1C=C2c3cccc4[nH]cc(c34)C[C@H]2N(C)C1` [LSD, lysergic acid diethylamide], for which, in the series on D1-3 receptors, the “stimulation of D1-3 receptors” value is listed as “stimulates”. On 5-HT transporter (SERT), the “interaction with the 5-HT transporter (SERT)” value was “does not interact”. For the same molecule, the “agonist potency at serotonin 5-HT1 receptors” value (“agonist potency” for short) in series [1] is “potent agoinsts”. The “stimulation of the 5-HT2A receptor” value on 5-HT2A receptor was “potently stimulates”.
With `COc1cc(CCN)cc(OC)c1OC` [mescaline], the “affinity for D2 receptors” value on D2 receptors is given as “no affinity”. Moreover, in series [1], the “agonist potency” value was “low potency”.
As to `CN(C)CCc1c[nH]c2cccc(O)c12` [psilocin], at 5-HT transporter (SERT), the “interaction with the 5-HT transporter (SERT)” value is given as “inhibits”. The “agonist potency” value in series [1] was “potent agoinsts”.
